These results are taken from PubChem BioAssay (NCI).

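96-well plates; 48 h exposure; 5 concentrations. Endpoints by linear interpolation between flanking doses. Not reached: highest tested concentration assigned. TGI: concentration producing complete growth inhibition.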

Some test systems named below: NCI/ADR-RES ovarian; MDA-MB-435; U251 CNS; HT29 colon; UO-31 renal; NCI-H226 lung; RPMI-8226 leukemia; SF-539 CNS; T-47D breast; MOLT-4 leukemia; HS 578T breast; HCT-116 colon; SW-620 colon; IGROV1 ovarian; ACHN renal; COLO 205 colon.
Common to all, as to experiment: NCI tumour cell line growth inhibition, 48 h

For `CC12c3c4cc(Br)cc3Oc3cc(Br)cc(c31)Oc1cc(Br)cc(c12)O4`, the TGI in the assay on NCI/ADR-RES ovarian is 58.5 µM; in the assay with MDA-MB-435, above 100 µM; in the assay with U251 CNS, above 100 µM; in the assay on HT29 colon, above 100 µM; with UO-31 renal, above 100 µM; with NCI-H226 lung, 41.3 µM. Also, the TGI in the assay with RPMI-8226 leukemia, in the assay with SF-539 CNS, in the assay with T-47D breast, with MOLT-4 leukemia, in the assay on HS 578T breast and with HCT-116 colon was above 100 µM in each case. The TGI with SW-620 colon was above 100 µM; in the assay on IGROV1 ovarian, 86.6 µM; in the assay with ACHN renal, above 100 µM; in the assay with COLO 205 colon it was above 100 µM.
As for `CCOC(=O)C1(C/C=C\CBr)CCCCCCCCCCC1=O` (configuration not stated), the TGI in the assay with NCI/ADR-RES ovarian was 39.2 µM; with MDA-MB-435 it was 29.8 µM; in the assay on U251 CNS, 26.1 µM; in the assay with HT29 colon, 34.3 µM; with UO-31 renal it was 15.2 µM; in the assay with NCI-H226 lung, 16.6 µM. Moreover, the TGI in the assay with RPMI-8226 leukemia was 9.02 µM; with SF-539 CNS it was 14.8 µM; in the assay with T-47D breast, 29.7 µM; in the assay on MOLT-4 leukemia, above 27 µM; in the assay on HS 578T breast it was 43.2 µM; in the assay on HCT-116 colon it was above 54.2 µM. Moreover, the TGI in the assay with SW-620 colon came out at 30.1 µM; with IGROV1 ovarian, 11.5 µM; with ACHN renal it was 32 µM; in the assay with COLO 205 colon, 33.7 µM.
On to `CCCCOCCOC1=CC(=O)c2c(O)ccc(O)c2C1=O`, for which the TGI in the assay on NCI/ADR-RES ovarian came to 4.74 µM; in the assay on MDA-MB-435, 0.334 µM; in the assay with U251 CNS, 3.07 µM; in the assay on HT29 colon, 3.12 µM; with UO-31 renal, 3.01 µM; with NCI-H226 lung, 3.14 µM. Moreover, the TGI in the assay on RPMI-8226 leukemia is above 10 µM; with SF-539 CNS, 2.94 µM; in the assay with T-47D breast, 4.03 µM; in the assay on MOLT-4 leukemia, 9.38 µM; with HS 578T breast, 4.99 µM; with HCT-116 colon it was 2.85 µM. In addition, the TGI is 2.84 µM in the assay on SW-620 colon, 3.35 µM with IGROV1 ovarian, 3.1 µM with ACHN renal and 2.36 µM with COLO 205 colon.
`O=C(O)CC1OCC=C2CN3CCC45C6=CC(=O)C(=O)C([N+](=O)[O-])=C6NC4C1C2CC35` (configuration not stated): the TGI with NCI/ADR-RES ovarian is above 100 µM; in the assay with MDA-MB-435, 31.3 µM; in the assay on U251 CNS, above 100 µM; in the assay with HT29 colon it was above 100 µM; in the assay on UO-31 renal, above 100 µM; in the assay with NCI-H226 lung, above 100 µM. The TGI with RPMI-8226 leukemia, in the assay on SF-539 CNS, in the assay with T-47D breast, with MOLT-4 leukemia, in the assay with HS 578T breast and in the assay on HCT-116 colon was above 100 µM in each case. Further, the TGI in the assay with SW-620 colon, in the assay on IGROV1 ovarian, in the assay with ACHN renal and in the assay with COLO 205 colon was above 100 µM each time.
Turning to `O=C(Cc1ccccc1)NCCCN(CCCCN(CCCNC(=O)Cc1ccccc1)C(=O)OCc1ccccc1)C(=O)OCc1ccccc1`, the TGI with NCI/ADR-RES ovarian is above 100 µM; in the assay on MDA-MB-435, above 100 µM; in the assay on U251 CNS it was above 100 µM; in the assay on HT29 colon it was above 100 µM; with UO-31 renal, 6.42 µM; in the assay with NCI-H226 lung, above 100 µM. Also, the TGI in the assay on RPMI-8226 leukemia, in the assay with SF-539 CNS, in the assay on T-47D breast, with MOLT-4 leukemia, with HS 578T breast and in the assay on HCT-116 colon was above 100 µM throughout. The TGI with SW-620 colon, in the assay on IGROV1 ovarian, in the assay on ACHN renal and in the assay with COLO 205 colon was above 100 µM throughout.
`NNCCc1n[nH]c(=O)n1N`: the TGI with NCI/ADR-RES ovarian, in the assay with MDA-MB-435, in the assay on U251 CNS, in the assay on HT29 colon, in the assay with UO-31 renal and in the assay on NCI-H226 lung was above 100 µM throughout. Also, the TGI in the assay with RPMI-8226 leukemia, in the assay with SF-539 CNS, with T-47D breast, in the assay with MOLT-4 leukemia, with HS 578T breast and in the assay on HCT-116 colon was above 100 µM throughout. The TGI in the assay on SW-620 colon, in the assay with IGROV1 ovarian, in the assay with ACHN renal and in the assay with COLO 205 colon was above 100 µM in each case.
As for `c1ccc(C2OCC(OC3CCCCO3)CO2)cc1` (configuration not stated), the TGI in the assay on NCI/ADR-RES ovarian, in the assay on MDA-MB-435, with U251 CNS, in the assay on HT29 colon, in the assay with UO-31 renal and in the assay with NCI-H226 lung was above 100 µM in each case. Also, the TGI with RPMI-8226 leukemia is above 100 µM; in the assay with SF-539 CNS it was above 100 µM; in the assay on T-47D breast, above 100 µM; with MOLT-4 leukemia, 68.2 µM; in the assay with HS 578T breast, above 100 µM; in the assay on HCT-116 colon, above 100 µM. Further, the TGI in the assay with SW-620 colon, with IGROV1 ovarian, in the assay on ACHN renal and in the assay with COLO 205 colon was above 100 µM in each case.
